Experimental data reported in publication PMC12368481, “Discovery of a Phenylalanine‐Derived Natural Compound as a Potential Dual Inhibitor of MDM2 and MDMX” (Chemmedchem, 2025).

Biological target: T1, MDMX (Homo sapiens, UniProt O15151)
T1 construct: gene MDM4
T1 sequence (O15151 1-110 limits assumed): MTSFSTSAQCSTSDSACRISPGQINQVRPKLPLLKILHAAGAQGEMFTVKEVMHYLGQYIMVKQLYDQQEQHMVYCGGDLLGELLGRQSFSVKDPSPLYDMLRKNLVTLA
Assay: SPR (Biacore T200), multicycle kinetics
Assay type: binding
Conditions: read-out: MDMX / K D

Compound: COC(CCCCCCC(C)C)C(=O)N[C@@H](Cc1ccccc1)C(=O)O (stereo partly shown) [P5]
- Kd: 593 nM
